Enrichment ratioavg and competition ratioavg data for 2 compounds are collected here from patent US11226337B2, “Chemoproteomic profiling of protein electrophilic and oxidative post-translational modifications” (Zenagem, LLC, priority 2017, dated 2022).

Structures are written as SMILES.

Assay in all cases: SILAC RP-ABPP
Common to all, as to assay type: cell-based
What all share (conditions): SILAC H/L, MDA-MB-231

Experiment [1] concerns the target T1, EPDR1 Mammalian ependyminrelated (Q9UM22) (Homo sapiens, UniProt Q9UM22).
T1 construct: shared by both the endogenous and recombinant forms of these proteins; endogenous in cells; host or cells: HEK293T and MDA-MB-231
T1 sequence (Q9UM22 38-224): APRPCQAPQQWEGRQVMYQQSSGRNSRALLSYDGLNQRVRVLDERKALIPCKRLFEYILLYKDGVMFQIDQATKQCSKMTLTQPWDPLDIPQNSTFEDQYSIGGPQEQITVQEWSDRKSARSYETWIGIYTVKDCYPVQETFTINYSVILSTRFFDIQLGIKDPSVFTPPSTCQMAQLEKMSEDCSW

In experiment [2] the target is T2, GAA Lysosomal alphaglucosidase (P10253) (Homo sapiens, UniProt P10253).
T2 construct: In Situ Labelling of Cells with Hydrazine Probes for MS Experiments; endogenous in cells

Experiment [3] has as its target T3, LEPRE1 Prolyl 3hydroxylase 1 (Q32P28) (Homo sapiens, UniProt Q32P28).
T3 construct: In Situ Labelling of Cells with Hydrazine Probes for MS Experiments; endogenous in cells
T3 sequence (Q32P28 23-736): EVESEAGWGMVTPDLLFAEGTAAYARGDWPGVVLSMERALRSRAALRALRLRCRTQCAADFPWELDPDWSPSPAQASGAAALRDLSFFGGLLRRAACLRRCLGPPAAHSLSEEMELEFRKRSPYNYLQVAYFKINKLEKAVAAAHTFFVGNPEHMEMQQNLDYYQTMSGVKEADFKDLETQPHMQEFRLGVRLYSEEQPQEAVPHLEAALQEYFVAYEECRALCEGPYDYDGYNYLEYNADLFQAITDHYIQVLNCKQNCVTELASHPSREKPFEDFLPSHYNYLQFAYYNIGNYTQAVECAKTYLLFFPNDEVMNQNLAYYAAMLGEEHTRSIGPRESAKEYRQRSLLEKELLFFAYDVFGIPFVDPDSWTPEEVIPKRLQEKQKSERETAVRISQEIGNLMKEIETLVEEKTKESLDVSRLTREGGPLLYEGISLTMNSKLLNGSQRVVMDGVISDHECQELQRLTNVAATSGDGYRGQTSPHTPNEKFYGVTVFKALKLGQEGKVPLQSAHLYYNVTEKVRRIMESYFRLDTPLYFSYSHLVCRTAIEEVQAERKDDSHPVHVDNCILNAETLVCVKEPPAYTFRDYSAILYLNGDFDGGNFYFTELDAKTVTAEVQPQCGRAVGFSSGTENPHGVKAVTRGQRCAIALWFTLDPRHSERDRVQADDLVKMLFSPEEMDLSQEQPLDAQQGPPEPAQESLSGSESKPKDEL

In experiment [4] the target is T4, LIPA Lysosomal acid lipase/cholesteryl ester (P38571) (Homo sapiens, UniProt P38571).
T4 construct: In Situ Labelling of Cells with Hydrazine Probes for MS Experiments; endogenous in cells
T4 sequence (P38571 77-399): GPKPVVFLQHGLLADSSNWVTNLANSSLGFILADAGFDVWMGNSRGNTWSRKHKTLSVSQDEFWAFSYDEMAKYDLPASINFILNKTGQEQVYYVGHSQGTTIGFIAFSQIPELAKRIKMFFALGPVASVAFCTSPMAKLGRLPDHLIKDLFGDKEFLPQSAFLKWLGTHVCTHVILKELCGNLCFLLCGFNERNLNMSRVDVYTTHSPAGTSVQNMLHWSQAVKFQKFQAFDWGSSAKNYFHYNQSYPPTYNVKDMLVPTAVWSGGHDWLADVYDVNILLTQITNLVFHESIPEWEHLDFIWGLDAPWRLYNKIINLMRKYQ

Regarding `C#CCNN.Cl` [probe 1, prop-2-yn-1-ylhydrazine hydrochloride], the enrichment ratioavg was determined as 20 in experiment [1] (probe 1 3 mM 0.5 h vs probe 3), 9 in experiment [2] (probe 1 3 mM 0.5 h vs probe 3), 8 in experiment [3] (probe 1 3 mM 0.5 h vs probe 3) and 7 in experiment [4] (probe 1 3 mM 0.5 h vs probe 3). In addition, the competition ratioavg amounted to 20 in experiment [1] (probe 1 vs probe 1+10x probe 3), 2 in experiment [2] (probe 1 vs probe 1+10x probe 3), 3 in experiment [3] (probe 1 vs probe 1+10x probe 3) and 4 in experiment [4] (probe 1 vs probe 1+10x probe 3).

Regarding `C#CCCNC(=O)c1ccc(NN)cc1.Cl` [probe 2, N-(but-3-yn-1-yl)-4-hydrazinylbenzamide hydrochloride], the enrichment ratioavg is on record as 20 in experiment [1] (probe 2 1 mM 0.5 h vs probe 4), 20 in experiment [2] (probe 2 1 mM 0.5 h vs probe 4), 8 in experiment [3] (probe 2 1 mM 0.5 h vs probe 4) and 17 in experiment [4] (probe 2 1 mM 0.5 h vs probe 4). In addition, the competition ratioavg in experiment [1] (probe 2 vs probe 2+10x probe 4) is 5; in experiment [2] (probe 2 vs probe 2+10x probe 4), 4; in experiment [3] (probe 2 vs probe 2+10x probe 4), 2; in experiment [4] (probe 2 vs probe 2+10x probe 4) it was 3.
